In US7144880B2, “Compositions relating to novel compounds and targets thereof” (Regents of the University of Michigan, priority 2003, dated 2006):

What was measured:
[1] = system: sub-mitochondrial particles; assay: Redox cycling, NADH and NAD(P)H oxidation assays with sub-mitochondrial particles; format: biochemical; conditions: SMPs
Protocol: By contrast, replacing the hydroxyl with chlorine or azide, or methylating the phenol effectively abolishes the cytotoxic activity of Bz-423. […] Such agents accept an electron from MRC enzymes and transfer it back to the chain at point of higher reducing potential. This type of ‘redox cycling’ consumes endogenous reducing equivalents (e.g., glutathione) along with […] nucleotides and results in cell death. To distinguish between these alternatives, it was determined whether Bz-423 redox cycles in the presence of sub-mitochondrial particles using standard NADH and NAD(P)H oxidation assays.

[2] = system: central benzodiazepine receptor; assay: Binding to the central benzodiazepine receptor
[3] = biological target: peripheral benzodiazepine receptor (PBR) (Homo sapiens, UniProt P30536); assay: Binding to the peripheral benzodiazepine receptor
Chain of peripheral benzodiazepine receptor (PBR) (P30536 whole entry, species assumed): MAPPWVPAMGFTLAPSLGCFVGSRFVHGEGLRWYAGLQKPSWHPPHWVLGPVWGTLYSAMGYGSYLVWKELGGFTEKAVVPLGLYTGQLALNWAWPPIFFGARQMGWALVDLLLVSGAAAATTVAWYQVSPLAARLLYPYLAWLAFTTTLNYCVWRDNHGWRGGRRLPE

[4] = system: malignant B cell line Raji; assay: Antiproliferation, 72 h, media with 10% FBS; format: cell-based; conditions: read-out: ED50 (μM) for antiproliferation
Protocol: (§1) Like most 1,4-benzodiazepines, Bz-423 binds strongly to bovine serum albumin (BSA), which reduces the effective concentration of drug free in solution. For example, in tissue culture media containing 10% (v/v) fetal bovine serum (FBS), ca. 99% of the drug is bound to BSA. Therefore, cell culture cytotoxicity assays are conducted in media with 2% FBS to reduce binding to BSA and increase the free [Bz-423]. Under these conditions, the dose response-curve is quite sharp such that there is a limited concentration range at which Bz-423 is only partly effective. Since some benzodiazepines are known to have anti-proliferative properties, the effect of Bz-423 at concentrations <ED50 were carefully analyzed and observed that in addition to inducing apoptosis, Bz-423 prevented cell growth after 3 d in culture. In these low serum conditions, the cytotoxic and anti-proliferative effects overlapped making it difficult to study each effect independently. […] While higher amounts of drug may also block proliferation, it caused apoptosis well before the effects on proliferation could be observed.
(§2) To confirm the decrease in cell number relative to control cells after 3 d of treatment is due to decreased proliferation and not cell death balanced by proliferation, in addition to cell counting, cell divisions were studied. PKH-67 is a fluorescent probe that binds irreversibly to cell membranes and upon cell division is partitioned equally between the daughter cells, making it possible to quantify cell division by flow cytometry. Ramos cells stained with PKH67 and treated with Bz-423 had fewer cell divisions at sub-cytotoxic concentrations which confirmed that the decrease in cell number was due to anti-proliferative affects and not cell death. To determine if Bz-423 induced anti-proliferation was specific to Ramos cells, cell counting and cell cycle experiments were done in other B cell lines and cell lines derived from solid tumors.

[5] = system: neuroblastoma cell line Lan-1; assay: Antiproliferation, 72 h, media with 10% FBS; format: cell-based; conditions: Lan-1, 72 h, read-out: ED50 (μM) for antiproliferation
Protocol: as §1, §2

[6] = system: ovarian cells with null p53 (SKOV3); assay: Antiproliferation, 72 h, media with 10% FBS; format: cell-based; conditions: SKOV3, 72 h, read-out: ED50 (μM) for antiproliferation
Protocol: as §1, §2

[7] = system: neuroblastoma cell line SHEP-1; assay: Antiproliferation, 72 h, media with 10% FBS; format: cell-based; conditions: SHEP-1, 72 h, read-out: ED50 (μM) for antiproliferation
Protocol: as §1, §2

[8] = system: malignant B cell line CA46; assay: Antiproliferation, 72 h, media with 10% FBS; format: cell-based; conditions: CA46, 72 h, read-out: ED50 (μM) for antiproliferation
Protocol: as §1, §2

[9] = system: neuroblastoma cell line IMR-32; assay: Antiproliferation, 72 h, media with 10% FBS; format: cell-based; conditions: IMR-32, 72 h, read-out: ED50 (μM) for antiproliferation
Protocol: as §1, §2

B cells = assay: Collapse of mitochondrial ΔΨm detected with DiOC6(3); format: cell-based; conditions: by 5 hours
Protocol: To detect O2^−, cells are incubated with DHE (10 μM) for 30 min at 37° C. and are analyzed by flow cytometry to measure ethidium fluorescence. Flow analysis of mitochondrial transmembrane potential (ψm) is conducted by labeling cells with DiOC6(3) (20 nM) for 15 min at 37 degrees C. A positive control for disruption of ψm is established using carbonyl cyanide m-chlorophenylhydrazone (CCCP, 50 μM). Caspase activation assays are performed with FAM-VAD-fluoromethylketone. Processing of the substrate is evaluated by flow cytometry.
To characterize the death mechanism engaged by Bz-423, intracellular ROS, ΔΨm, cytochrome c release, caspase activation, and DNA fragmentation were measured over time (the results presented are for B cells but do characterize the response in many different cell types). The first event detected after exposure to Bz-423 is an increase in the fraction of cells that stain with dihyroethedium (DHE), a redox-sensitive agent that reacts specifically with O2^−.
Collapse of ΔΨm was detected using DiOC6(3), a mitochondria-selective potentiometric probe.

Ramos cells = assay: Cytotoxicity in media containing 10% FBS; format: cell-based, human
Excerpt: as §1, with “Therefore, cell culture cytotoxicity assays are conducted in media with 2% FBS to reduce binding to BSA and increase the free [Bz-423].” left out

[10] = system: ornithine decarboxylase (ODC); assay: ODC activity in treated cells, conversion of 3H-ornithine to putrescine; format: cell-based; conditions: cells treated 4 h
Protocol: In these experiments, the conversion of ornithine to putrescine was quantified using ^3H-ornithine. For comparisons, control cells were treated with vehicle control or difluoromethyl ornithine (DFMO), a potent inhibitor of ornithine decarboxylase (like Bz-423, DFMO is a potent anti-proliferative agent). […] The reduction in ODC activity was paralleled by a decrease in ODC protein levels measured under the same conditions.
As described above, Bz-423 induced apoptosis was signaled by an ROS response that arose from MRC complex III as a result of the state 3 to 4 transition. It was next sought to determine if the ROS response, critical for apoptosis, also mediated these effects on ODC. If the ROS was required for the decrease in ODC activity, it would likewise be implicated as potentially part of the anti-proliferative response to Bz-423. To test this, Ramos cells were treated with Bz-423, DFMO, or vehicle control for 4 h. In parallel, a second group of cells was pre-incubated with MnTBAP to limit the ROS and then cultured with Bz-423, DFMO, and vehicle control.

CN1C(=O)C(Cc2ccc3ccccc3c2)N=C(c2ccc(O)cc2)c2cc(Cl)ccc21 (stereo not shown) [Bz-423]
Redox cycling (substrate oxidation) [1]: does not lead to substrate oxidation | Binding to the central benzodiazepine receptor [2]: prevents binding | Kd [3]: ~1 µM | EC50 [4]: 12.9 µM | EC50 [5]: 13.7 µM | EC50 [6]: 18.2 µM | EC50 [7]: 15.9 µM | EC50 [8]: 13.4 µM | EC50 [9]: 18 µM | Cells with collapse of ΔΨm (B cells): > 90% | Cytotoxicity (Ramos cells; 10–15 μM): minimal cytotoxicity | Cytotoxicity (Ramos cells; >20 μM): only apoptosis was observed | Effect on ODC activity [10]: significantly reduced ODC activity
